In general, inhibition refers to how much of the control response was suppressed. By EC50 is commonly meant the concentration needed to bring the measured effect to its halfway point.

Consider three molecules from publication PMC7883726 (Acta Pharmaceutica Sinica. B, 2021).

“Also recorded” adds a separate entry of the source. Read-outs that look alike come from different tables or passages of the source.

The target in data set [1] is T1, SARS-CoV-2 RdRp (Severe acute respiratory syndrome coronavirus 2, UniProt P0DTD1). Briefly: biochemical. Particulars: read-out: inhibition of polymerase activity.
Data set [2] deals with T1, SARS-CoV-2 RdRp. Kind of data set: cell-based.
The target in data set [3] is SARS-CoV-2 RdRp with nsp10–nsp14 exoribonuclease complex (Severe acute respiratory syndrome coronavirus 2, UniProt P0DTD1). It counts as cell-based. Particulars: with versus without nsp10–nsp14.
In a further data set the test system is HCoV-OC43. Briefly: HCoV-OC43 cytopathic effects. The format is cell-based. Background: Protection from cytopathic effect is a common read-out in antiviral testing.
Another data set has as its target SARS-CoV-2 Mpro (Severe acute respiratory syndrome coronavirus 2, UniProt P0DTD1). Briefly: SARS-CoV-2 Mpro enzyme activity inhibition assay. It counts as biochemical. The following applies: 10 μmol/L.
The test system of another data set is HEK293T cells. Particulars: below 50 μmol/L, CCK-8.
The conditions of data set [4]: cited from earlier work.
For data set [5] the following is noted: orally administered, cited from earlier work.
For data set [6] the following is noted: rats, orally administered; cited from earlier work.
The next data set relates to SARS-CoV-2. The following applies: read-out: EC50 SARS-CoV-2 in vitro; cited from earlier work.

`O=C(O[C@@H]1O[C@@H]2COC(=O)c3cc(O)c(O)c(O)c3-c3c(cc(O)c(O)c3O)C(=O)O[C@H]([C@H]1O)[C@@H]2O)c1cc(O)c(O)c(O)c1` [RAI-S-37, Corilagin]: on SARS-CoV-2 RdRp [1], the inhibition at 2.5 µM was determined as 24%, the inhibition at 10 µM stood at 73% and the inhibition at 40 µM is 83%. Also, at SARS-CoV-2 RdRp [2], the EC50 worked out at 3.33 µM. Further, the “fold increase in EC50 on expression of nsp10–nsp14” value in data set [3] is given as “same EC50 values; also recorded: remain the same”. For the same molecule, the “concentration protecting cells from CPE induced by HCoV-OC43” value in the data set with HCoV-OC43 turned out to be 0.78 µmol/L. Also, the “inhibitory effect on SARS-CoV-2 Mpro” value against SARS-CoV-2 Mpro is “did not show any inhibitory effect”. For the same molecule, in the data set on HEK293T cells, the “cytotoxicity on HEK293T cells” value is recorded as “Neither remdesivir nor RAI-S-37 showed cytotoxicity”. Besides, in data set [4], the LD50 is reported as 3500–5000 mg/kg b. wt and the “acute dose showing maximum tolerance” value is given as “up to 3500 mg/kg body weight (b.wt.)”. Moreover, in [4] (oral), the “toxicity in acute toxicity studies” value is recorded as “did not show any toxicity”. Also, in [5] (mice and rats), the “half lifetime (t1/2)” value is listed as “about 6 h” and the “time to Cmax (Tmax)” value is about 2 h. The “maximum plasma concentration (Cmax)” value in data set [5] (mice) is 57.0 µg/mL. Also, the “maximum plasma concentration (Cmax)” value in data set [6] was 52.37 µg/mL.
For `NC(=O)c1ncn([C@@H]2O[C@H](CO)[C@@H](O)[C@H]2O)n1` [ribavirin], the 50% effective concentration (EC50) with SARS-CoV-2 was 110 µM.
Take `CCC(CC)COC(=O)[C@H](C)N[P@](=O)(OC[C@H]1O[C@@](C#N)(c2ccc3c(N)ncnn23)[C@H](O)[C@@H]1O)Oc1ccccc1` [remdesivir, reference compound]: in the data set on HCoV-OC43, the “concentration protecting cells from CPE induced by HCoV-OC43” value stood at 0.39 µmol/L. Also, the “cytotoxicity on HEK293T cells” value in the data set on HEK293T cells is recorded as “Neither remdesivir nor RAI-S-37 showed cytotoxicity”.
